According to US20250154145A1, “OXER1 ANTAGONISTS AND USES THEREOF” (Fairhaven Pharmaceuticals Ins., priority 2021, published 2025):

Columns and labels:
neutrophils = test: Neutrophil calcium flux assay (5-OXO-ETE-stimulated, Indo-1 fluorescence); format: cell-based; conditions: Neutrophil, 5-OXO-ETE-stimulated calcium flux
In short: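 Indo-1-loaded neutrophils (5×10^6 cells/ml, 30 min at 37 °C) in HBSS with Ca/Mg and HEPES, pre-incubated 5 min with antagonist or buffer. Stimulated with 5-OXO-ETE added at 200 nM (4× stock); fluorescence (ex 331/em 410 nm) read every 5 s for 30 cycles, expressed as net fluorescence.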

Human OXER1 = molecular target: T1, Human OXER1 (Homo sapiens, UniProt Q8TDS5); test: BRET early endosome trafficking assay (OXER1-Rluc8 / rGFP-FYVE in HEK293 cells); format: cell-based; conditions: HEK293 cells transfected with OXER1-Rluc8 and rGFP-FYVE, 5-oxo-ETE agonist
T1 construct: host or cells: HEK293 cells, transient transfection
Description: Background—The following assay can be used for determination of OXER1 activation in living HEK293 cells. Signalling functions of GPCRs are tightly regulated by endocytosis, the targeting of receptors to endosomes and their sorting to lysosomes or recycling to the plasma membrane. The early endosomes (EEs) trafficking assay (Namkung et al., Monitoring G protein-coupled receptor and β-arrestin trafficking in live cells using enhanced bystander BRET, Nat Commun 2016, 7: 12178) uses Rluc8-tagged OXER1 and Renilla GFP (rGFP) attached to the FYVE domain from human endofin/zinc finger FYVE domain-containing protein 16, which binds phosphatidylinositol 3-phosphate in EEs. Agonist stimulation of OXER1-Rluc8 leads to trafficking of the receptor to EEs, and ensuing increase of the donor concentration relative to the rGFP-FYVE acceptor anchored in the same cellular compartment, and thus results in an increase in BRET signal.
Plasmids—Human OXER1 VersaClone cDNA was obtained from R&D Systems. Rluc8 (A55T, C124A, S130A, K136R, A143M, M185V, M253L, and S287L variant of theRenilla renformis luciferase) gBlocks gene fragment (Integrated DNA Technologies, IA) was inserted with linker in frame at the C-terminus of OXER1. The FYVE domain from human endofin (residues Q739 to K806) attached in frame at the C terminus of a humanized Renilla GFP (rGFP), were synthesized as gBlocks gene fragments.
Bioluminescence Resonance Energy Transfer (BRET) Measurement—HEK293 cells were transfected with OXER1-Rluc8 and rGFP-FYVE. The following day, transiently transfected cells were seeded in 96-well white clear bottom microplates coated with poly-D-lysine and left in culture for 24 hours. Cells were washed once with Tyrode's buffer (140 mmol/L NaCl, 1 mmol/L CaCl2, 2.7 mmol/L KCl, 0.49 mmol/L MgCl2, 0.37 mmol/L NaH2PO4, 5.6 mmol/L glucose, 12 mmol/L NaHCO3, and 25 mmol/L HEPES, pH 7.5) before performing assays in Tyrode's buffer. Test compounds were incubated with cells for 15 minutes at 37° C. before addition of […] of the OXER1 agonist 5-oxo-6E,8Z,1IZ,14Z-eicosatetraenoic acid (5-oxo-ETE) for 45 minutes at 37° C. The Rluc8 substrate coelenterazine 400A (Prolume, Lakeside, AZ) was added at a final concentration of […] and BRET readings were collected using a Spark or Infinite M1000 microplate reader (Tecan, Morrisville, NC). BRET^2 readings between Rluc8 and rGFP were collected by sequential integration of the signals detected in the 370 to 450 nm (Rluc8) and 510 to 540 nm (rGFP) windows. The BRET signal was calculated as the ratio of light emitted by acceptor (rGFP) over the light emitted by donor (Rluc8). Ligand-promoted net BRET values were calculated by subtracting vehicle-induced net BRET from ligand-induced net BRET.

T1 sequence (Q8TDS5 whole entry): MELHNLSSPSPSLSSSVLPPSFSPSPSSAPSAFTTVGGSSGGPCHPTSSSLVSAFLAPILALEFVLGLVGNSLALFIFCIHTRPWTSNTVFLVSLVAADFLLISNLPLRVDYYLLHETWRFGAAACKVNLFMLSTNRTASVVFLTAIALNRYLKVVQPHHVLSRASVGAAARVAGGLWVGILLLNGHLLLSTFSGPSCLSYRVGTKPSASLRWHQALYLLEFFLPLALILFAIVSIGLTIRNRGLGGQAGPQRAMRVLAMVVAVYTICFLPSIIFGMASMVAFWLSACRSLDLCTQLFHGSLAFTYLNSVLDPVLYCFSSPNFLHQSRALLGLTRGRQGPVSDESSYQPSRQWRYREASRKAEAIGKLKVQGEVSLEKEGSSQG

| Structure (SMILES) | IC50 (neutrophils) | IC50 (Human OXER1) |
| --- | --- | --- |
| C[C@H](CC(=O)O)CC(=O)n1c(CCCCCCc2cccc(Cl)c2)cc2ccc(Cl)cc21 [Compound I-39] | > 300 nM | 100 to 300 nM |
| CC(CC(=O)O)CC(=O)c1c(CCCCOCc2ccccc2)n(C)c2ncc(C#N)cc12 (centres unmarked) [Compound I-104] | < 100 nM | 100 to 300 nM |
| CCCCCCc1c(C(=O)C[C@H](C)CC(=O)O)c2cc(Cl)ccc2n1C [Compound I-11] | 100 to 300 nM | 100 to 300 nM |
| CC(C)C#CCCCCCCc1c(C(=O)C[C@H](C)CC(=O)O)c2cc(Cl)ccc2n1C [Compound I-68] | < 100 nM | < 100 nM |
| C[C@H](CC(=O)O)CC(=O)c1c([C@H](O)CCCCCc2cccc(Cl)c2)n(C)c2ccc(Cl)cc12 [Compound I-5] | > 300 nM | > 300 nM |
| C[C@@H](CC(=O)O)CC(=O)c1c(CCCCCCc2cccc(Cl)c2)oc2ccc(Cl)cc12 [Compound I-22] | > 300 nM | 100 to 300 nM |
| C[C@H](CC(=O)O)CC(=O)c1c(CCCCCCc2ccc(O)c(Cl)c2)n(C)c2ccc(Cl)cc12 [Compound I-48] | < 100 nM | < 100 nM |
| C[C@H](CC(=O)O)CC(=O)c1c(CCCCOCc2cccc(Cl)c2)n(C)c2ncc(C(F)(F)F)cc12 [Compound I-182] | < 100 nM | 100 to 300 nM |
| C[C@H](CC(=O)O)CC(=O)c1c(CCCCCOc2cccc(Cl)c2)n(C)c2ccc(Cl)cc12 [Compound I-59] | < 100 nM | 100 to 300 nM |
| C[C@H](CC(=O)O)CC(=O)c1c(CCCCOCc2ccccc2)n(C)c2ncc(C#N)cc12 [Compound I-105] | < 100 nM | 100 to 300 nM |
| C[C@H](CC(=O)O)CC(=O)c1c(CCCCOCc2cccc(Cl)c2)n(C)c2ncc(Cl)cc12 [Compound I-83] | < 100 nM | 100 to 300 nM |
| CONC(=O)C[C@H](C)CC(=O)c1c(CCCCCCc2cccc(Cl)c2)n(C)c2ccc(Cl)cc12 [Compound I-20] | 100 to 300 nM | > 300 nM |
| C[C@@H](CC(=O)O)CC(=O)c1c([C@@H](O)CCCCCc2cccc(Cl)c2)n(C)c2ccc(Cl)cc12 [Compound I-4] | > 300 nM | > 300 nM |
| C[C@H](CC(=O)O)CC(=O)c1c(CCCCCCc2cccc(Cl)c2)oc2ccc(Cl)cc12 [Compound I-21] | > 300 nM | 100 to 300 nM |
| C[C@H](CC(=O)O)CC(=O)c1c(CCCCCC(=O)c2cccc(Cl)c2)n(C)c2ccc(Cl)cc12 [Compound I-45] | 100 to 300 nM | 100 to 300 nM |
| C[C@H](CC(=O)O)CC(=O)c1c([C@@H](O)CCCCCc2cccc(Cl)c2)n(C)c2ccc(Cl)cc12 [Compound I-3] | > 300 nM | < 100 nM |
| C[C@H](CC(=O)O)CC(=O)c1c(CCCCCCc2cccc(Cl)c2)n(C)c2ccc(Cl)cc12 [Compound I-2] | < 100 nM | < 100 nM |
| C[C@H](CC(=O)NS(C)(=O)=O)CC(=O)c1c(CCCCCCc2cccc(Cl)c2)n(C)c2ccc(Cl)cc12 [Compound I-14] | 100 to 300 nM | 100 to 300 nM |
| C[C@H](CC(=O)O)CC(=O)c1c(CCCCCCc2ccc(O)cc2)n(C)c2ccc(Cl)cc12 [Compound I-10] | < 100 nM | < 100 nM |

| Structure (SMILES) | IC50 (neutrophils) | IC50 (Human OXER1) |
| --- | --- | --- |
| C[C@H](CC(=O)O)CC(=O)c1c(CCCCCCc2cccc(Cl)c2)sc2ccc(Cl)cc12 [Compound I-23] | 100 to 300 nM | < 100 nM |
| C[C@H](CC(=O)NO)CC(=O)c1c(CCCCCCc2cccc(Cl)c2)n(C)c2ccc(Cl)cc12 [Compound I-17] | > 300 nM | > 300 nM |
| C[C@H](CC(=O)O)CC(=O)c1c(CCCCCCc2cccc(Cl)c2)n(C)c2ccc(C#N)cc12 [Compound I-98] | < 100 nM | < 100 nM |
| [2H]C([2H])([2H])n1c(CCCCCCc2cccc(Cl)c2)c(C(=O)C[C@H](C)CC(=O)O)c2cc(Cl)ccc21 [Compound I-40] | < 100 nM | < 100 nM |
| CONC(=O)C[C@@H](C)CC(=O)c1c(CCCCCCc2cccc(Cl)c2)n(C)c2ccc(Cl)cc12 [Compound I-19] | > 300 nM | > 300 nM |
| C[C@H](CC(=O)O)CC(=O)c1c(CCCCOCc2cccc(Cl)c2)n(C)c2ccc(Cl)cc12 [Compound I-60] | < 100 nM | 100 to 300 nM |
| CC(CC(=O)O)CC(=O)c1c(CCCCOCc2cccc(Cl)c2)n(C)c2ccc(C(F)(F)F)cc12 (centres unmarked) [Compound I-185] | < 100 nM | 100 to 300 nM |
| C[C@@H](CC(=O)O)CC(=O)c1c([C@H](O)CCCCCc2cccc(Cl)c2)n(C)c2ccc(Cl)cc12 [Compound I-6] | > 300 nM | > 300 nM |
| C[C@H](CC(=O)O)CC(=O)c1c(CCCCCCc2ccccc2)n(C)c2ccc(Cl)cc12 [Compound I-7] | < 100 nM | < 100 nM |
| C[C@H](CC(=O)O)CC(=O)c1c(CCCCCC(O)c2cccc(Cl)c2)n(C)c2ncc(Cl)cc12 (some centres unmarked) [Compound I-85] | < 100 nM | < 100 nM |
| C[C@@H](CC(=O)O)CC(=O)c1c(CCCCCCc2cccc(Cl)c2)n(C)c2ccc(Cl)cc12 [Compound I-1] | > 300 nM | 100 to 300 nM |
| C[C@H](CC(=O)O)CC(=O)c1c(CCCCOCc2cccc(Cl)c2)n(C)c2ccc(C#N)cc12 [Compound I-180] | < 100 nM | < 100 nM |
| C[C@@H](CC(=O)O)CC(=O)c1c(CCCCCCc2ccccc2)n(C)c2ccc(Cl)cc12 [Compound I-8] | > 300 nM | > 300 nM |
| C[C@@H](CC(=O)c1c(CCCCCCc2cccc(Cl)c2)n(C)c2ccc(Cl)cc12)Cc1nnn[nH]1 [Compound I-13] | < 100 nM | < 100 nM |
| C[C@H](CC(=O)O)CC(=O)c1c(CCCCCC(F)c2cccc(Cl)c2)n(C)c2ccc(Cl)cc12 (some centres unmarked) [Compound I-47] | < 100 nM | < 100 nM |
| C[C@H](CC(=O)O)CC(=O)c1c(CCCCCC(O)c2cccc(Cl)c2)n(C)c2ccc(Cl)cc12 (some centres unmarked) [Compound I-44] | < 100 nM | < 100 nM |
| C[C@H](CC(=O)O)CC(=O)c1c(CCCCCCc2cccc(F)c2)n(C)c2ccc(Cl)cc12 [Compound I-9] | < 100 nM | < 100 nM |
| CC(C)CCOCc1c(C(=O)C[C@H](C)CC(=O)O)c2cc(Cl)ccc2n1C [Compound I-73] | > 300 nM | > 300 nM |
